# Data: PubChem BioAssay AID1626 (SRMLSC, 2009)
# Test system: M. tuberculosis H37Rv growth inhibition
# Experiment: M. tuberculosis H37Rv growth inhibitors, H37Rv strain (AID 1626)
# Conditions: for IC90: measured here: IC90 against H37Rv; for CC50: measured here: Vero cell cytotoxicity
SMILES,IC50 [µM],IC90 [µM],CC50 [µM]
COc1ccc(C2NCCc3c2[nH]c2ccccc32)cc1COc1ccc(F)cc1 (stereo unspecified),3.11,3.39,12.1
Nc1ccccc1Nc1cc(-c2ccccc2)[nH]n1,–,> 100,–
Oc1ccccc1N=Cc1ccc[nH]1,3.04,6.39,> 40
CCn1cc(C(=O)O)c(=O)c2cc(F)c(N3CCNCC3)cc21,2.85,3.11,–
CCCC(=O)N1CCN(c2ccc(NC(=O)c3ccc([N+](=O)[O-])o3)cc2Cl)CC1,< 0.195,< 0.195,1.8
CCOC(=O)c1ccc(NC(=O)CCc2nc(-c3ccc(Cl)cc3)no2)cc1,0.898,18.4,–
c1ccc(-c2cc(-c3ccncc3)nc3ccc4ccccc4c23)cc1,–,–,> 40
CCOC(=O)c1ccc(NS(=O)C23CC4CC(CC(C4)C2)C3)cc1 (stereo unspecified),7.62,> 100,–
CCCCOc1ccc(NC(=O)CSc2nnnn2C)cc1,34,> 100,–
COc1ccc2nc(C)cc(SCC(=O)OC(C)C)c2c1,9.36,13.8,–
CN(CC(=O)Nc1ccc(Cl)c(Cl)c1)Cc1nnc(-c2ccc(F)cc2)o1,15.9,24.1,–
N=C1SCC(=O)N1c1ncc(Cc2ccccc2Cl)s1,< 0.391,15.9,> 40
c1cc2c(cc1C1CCCCC1)c1c3n2CCCNC3CCC1 (stereo unspecified),6.06,6.63,6.99
Cc1ccc(-n2c(-c3ccc(Br)cc3)c[n+]3c2CCc2ccc4cccnc4c2-3)cc1,0.76,1.07,5.51
Cc1ccc(C(=O)/C=C\Nc2ccc(C)c(C)c2)cc1,–,> 100,–
O=[N+]([O-])c1ccc(COc2ccc(-c3[nH]ncc3-c3ccc(Cl)cc3)c(O)c2)cc1,23,> 100,> 40
O=C(CSC1=NCCS1)Nc1ccc2ccccc2c1,–,> 100,–
CCOc1ccc(N=CC2=C(O)CC(c3ccco3)CC2=O)cc1 (stereo unspecified),5.31,> 100,–
C=C1C(=O)O[C@@H]2C[C@@H](C)[C@@H]3C=CC(=O)[C@@]3(C)[C@@H](OC(C)=O)[C@H]12,2.07,3.51,2.02
CCCCCCCCCCn1c2c(c(=N)c3c1CCC3)CCC2,2.42,3.59,6.09

SMILES,IC50 [µM],IC90 [µM],CC50 [µM]
CC(Oc1ccc(Cl)cc1Cl)c1nc(-c2ccc(NC(=O)c3ccncc3)cc2)no1 (stereo unspecified),33.5,> 100,> 40
O=c1[nH][nH]c(-c2ccccc2O)c1C(C[N+](=O)[O-])c1cccc(Cl)c1 (stereo unspecified),7.89,13.9,26.7
CCC(/C=C1\Sc2ccc(OC)cc2N1CCO)=C\c1sc2ccc(OC)cc2[n+]1CCO,7.29,10.2,–
CC1CCN(c2nc(-c3ccncc3)nc3ccccc23)CC1,4.62,6.52,> 40
CC(=O)Nc1nc2ccccc2n1Cc1ccccc1Cl,< 0.195,> 100,16.3
CCOc1ccc(N/C=C\C(=O)c2ccc3c(c2)OCO3)cc1,4.53,> 100,–
Nc1c(C(=O)NCCc2ccccc2)c2nc3ccccc3nc2n1CCN1CCOCC1,18.6,25.4,31.4
CCOc1ccc(N=CC2=C(O)CC(C)(C)CC2=O)cc1,–,> 100,–
COc1ccc(NC(=O)CN(C)CC(=O)Nc2cccc(F)c2)cc1Cl,32,> 100,–
CN1CCN(CCCNC(=O)c2ccc(/C=C3\Sc4ccccc4N(Cc4ccc(F)cc4)C3=O)cc2)CC1,6.38,11.3,12.5
CCC(=O)Nc1cccc(C(=O)/C=C/c2ccccc2)c1,22.1,28.2,10.7
Nc1ccc(-c2cc(-c3cccc(N)c3)nc(-c3ccccc3)n2)cc1,–,–,> 40
O=C(/C=C/c1cccc([N+](=O)[O-])c1)NC1CC2CCC1C2 (stereo unspecified),6.04,> 100,–
COc1ccc(NC(=O)CCc2nc(-c3ccc(C)cc3)no2)cc1Cl,3.59,> 100,> 40
CC1(c2ccccc2)CC(C)(C)N(C(=O)c2cc([N+](=O)[O-])cc([N+](=O)[O-])c2)c2ccccc21 (stereo unspecified),13.4,54.5,> 40
COC(=O)CSc1nc(N)c2c3c(sc2n1)C(c1ccccc1)SC(c1ccccc1)C3 (stereo unspecified),14.4,> 100,7.1
Nc1nnc(Sc2ncccc2[N+](=O)[O-])s1,9.58,12.9,–
O=[N+]([O-])c1cc(CN2CCCC2)ccc1Sc1ccc(Cl)cc1,29.8,> 100,> 40
Cc1cccc(NC(=O)c2nc[nH]c2C(=O)N[C@@H](CC(C)C)C(=O)OCc2ccccc2)c1,23,> 100,39.1
O=C(CSc1cccc2cccnc12)N1CCCC1,–,–,27.4

SMILES,IC50 [µM],IC90 [µM],CC50 [µM]
CCCNC(=O)c1nnsc1S(=O)c1ccc(Cl)cc1 (stereo unspecified),8.74,10.5,8.53
CCn1cnc2sc(C(=O)Oc3cccc(C)c3)c(C)c2c1=O,< 0.195,2.36,–
COc1ccc(C(CCN2CCCC(C)C2)c2c(OC)cc(OC)c3c(-c4ccccc4)cc(=O)oc23)cc1 (stereo unspecified),7.53,10.2,14.1
Cc1ccc(-c2nc(NCc3ccco3)c3ccccc3n2)cc1,9.38,16.2,> 40
NC1=NC[C@H](Cc2ccccc2)N1CCCCC1CCCCC1,10,13.6,> 40
COc1ccc(CNC(=O)c2c(C)nc3ccccn23)cc1,1.77,7.63,–
CCCCCCCn1c(=O)c(C(=O)Nc2cnccn2)c(O)c2ccccc21,< 0.195,< 0.195,2.37
NS(=O)(=O)c1ccc(CCNc2ncnc3c2c(-c2ccccc2)cn3-c2ccc(F)cc2)cc1,5.77,6.76,> 40
CCOC(=O)c1cc(-c2csc(COc3ccc(Cl)cc3)n2)on1,< 0.195,2.41,–
COc1cccc(/C=C/C(=O)c2cccc([N+](=O)[O-])c2)c1,6.89,> 100,35.9
Nc1nc2c(s1)COc1ccccc1-2,–,> 100,–
CCOc1ccc(/C=C/C(=O)c2ccccc2)cc1OC,–,> 100,> 40
Cc1nn2c(N3CCN(C)CC3)cc(C(C)(C)C)nc2c1-c1ccccc1,3.03,4.55,25.3
CC(C)Cc1c(O)nc(SCC(=O)Nc2ccc3c(c2)CCC3)[nH]c1=O,–,> 100,–
CN(C)c1ccc(N=Nc2ccccc2C(=O)OCC(=O)NCC2CCCCC2)cc1,7.74,17.2,–
Cc1ccc(N=Nc2ccc(O)c3ncccc23)cc1C,14.1,> 100,3.1
CC(C)(C)c1cc(NCc2ccccn2)n2ncc(-c3ccc(Cl)cc3)c2n1,0.655,6.15,> 40
O=C(C[n+]1cnn(CC(=O)c2ccc(Cl)cc2Cl)c1)c1ccc([N+](=O)[O-])cc1,20.3,36.8,–
O=C(NC(Nc1nc2ccc([N+](=O)[O-])cc2s1)(C(F)(F)F)C(F)(F)F)c1ccccc1Cl,2.17,4.17,1
